# Assays:
# Assay type in all cases: cell-based
# P300 = molecular target: T1, P300 (Homo sapiens, UniProt Q09472); experiment: P300 degradation, western blot, 22Rv1; conditions: 22Rv1, 5 h
# T1 construct: endogenous in cells; host or cells: 22Rv1
# Protocol: (§1) WesternT Blot Analysis. Western blot analysis was performed essentially as described previously. The cells treated with indicated compounds were lysed in Radioimmunoprecipitation Assay Protein Lysis and Extraction Buffer (25 mmol/L Tris.HCl, pH 7.6, 150 mmol/L NaCl, 1% Nonidet P-40, 1% sodium deoxycholate, and 0.1% sodium dodecyl sulfate) containing proteinase inhibitor cocktail (Roche Diagnostics, Mannheim, Germany). Equal amounts of total protein were electrophoresed through 10% SDS-polyacrylamide gels after determination of protein concentration by BCA assay (Fisher Scientific, Pittsburgh, PA). The separated protein bands were transferred onto PVDF membranes (GE Healthcare Life Sciences, Marlborough, MA) and blotted against different antibodies, as indicated. The blots were scanned, and the band intensities were quantified using GelQuant.NET software provided by biochemlabsolutions.com. The relative mean intensity of target proteins was expressed after normalization to the intensity of glyceraldehyde-3-phosphate dehydrogenase bands.
# CBP = molecular target: T2, CBP (Homo sapiens, UniProt Q92793); experiment: CBP degradation, western blot, 22Rv1; conditions: 22Rv1, 5 h
# T2 construct: endogenous in cells; host or cells: 22Rv1
# Protocol: as §1
# STAT3 = molecular target: T3, STAT3 (Homo sapiens, UniProt P40763); experiment: STAT3 degradation HiBiT assay (STAT3-HIBIT KI HeLa); conditions: STAT3-HIBIT KI HeLa cells, 24 hours
# T3 construct: host or cells: HeLa (STAT3-HiBiT CRISPR knock-in clone)
# T3 sequence (P40763 whole entry): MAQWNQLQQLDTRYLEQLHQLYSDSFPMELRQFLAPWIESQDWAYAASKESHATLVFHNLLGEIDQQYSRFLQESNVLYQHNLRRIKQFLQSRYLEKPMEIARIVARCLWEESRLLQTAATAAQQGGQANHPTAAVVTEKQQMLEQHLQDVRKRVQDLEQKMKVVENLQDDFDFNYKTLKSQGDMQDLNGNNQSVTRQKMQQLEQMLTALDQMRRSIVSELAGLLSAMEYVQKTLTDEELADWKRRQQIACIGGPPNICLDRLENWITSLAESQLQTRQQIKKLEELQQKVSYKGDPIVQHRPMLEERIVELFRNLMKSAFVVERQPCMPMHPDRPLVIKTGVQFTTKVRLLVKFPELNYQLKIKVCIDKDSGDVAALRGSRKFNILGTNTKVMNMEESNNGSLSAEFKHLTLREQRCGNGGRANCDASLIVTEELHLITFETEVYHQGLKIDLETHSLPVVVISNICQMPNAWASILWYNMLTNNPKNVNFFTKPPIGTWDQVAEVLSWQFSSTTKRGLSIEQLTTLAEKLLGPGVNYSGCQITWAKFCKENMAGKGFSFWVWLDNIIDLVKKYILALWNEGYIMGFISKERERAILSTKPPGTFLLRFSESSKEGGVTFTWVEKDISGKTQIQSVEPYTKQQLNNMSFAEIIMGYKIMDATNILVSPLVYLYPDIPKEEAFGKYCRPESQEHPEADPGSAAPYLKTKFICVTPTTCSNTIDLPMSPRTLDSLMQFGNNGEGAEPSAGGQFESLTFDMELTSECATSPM
# Protocol: STAT3-HIBIT KI HeLa cell line was purchased from Promega. This cell line is a clone created by using CRISPR-Cas9 to fuse HiBIT to the 3′ end of STAT3 in HeLa cells. DMEM medium and FBS were purchased from Gibco/Thermo Fisher Scientific. STAT3 degradation was determined based on quantification of luminescent signal using Nano-Glo HiBIT Lytic Detection System. In a typical procedure, cells seeded at 20000 cells per well in 96-well white plates (Corning) were incubated with serially diluted compounds for 24 hours at 37° C. with 5% CO2. At the end of treatment, Nano-Glo HiBIT Lytic Detection reagents was added to the wells and luminescence was acquired on TECAN PSARK plate reader. Untreated cells were used as control. Data points were fit with a four-parameter equation to generate a concentration-response curve. IC50 values were calculated using a nonlinear regression analysis of the mean±SD from triplicate.
# MOLM-16 = experiment: Cell viability assay (CellTiter-Glo 2.0), MOLM-16; conditions: MOLM16; MOLM-16 cells
# SU-DHL-1 = experiment: Cell viability assay (CellTiter-Glo 2.0), SU-DHL-1; conditions: Homo sapiens, 96 h; SU-DHL-1 cells, 4 days
# Protocol: SU-DHL-1 and SUP-M2 cell viability was determined by CellTiter-Glo 2.0 Cell Viability Assay (Promega). […] In a typical procedure, cells seeded at 1000 cells per well in 384-well white plates (Corning) were incubated with serially diluted compounds for 4 days at 37° C. with 5% CO2. At the end of treatment, CellTiter-Glo 2.0 was added to the wells and luminescence was acquired on TECAN PSARK plate reader. Untreated cells were used as control. Data points were fit with a four-parameter equation to generate a concentration-response curve. IC50 values were calculated using a nonlinear regression analysis of the mean±SD from triplicate.
# T1 sequence (Q09472 whole entry): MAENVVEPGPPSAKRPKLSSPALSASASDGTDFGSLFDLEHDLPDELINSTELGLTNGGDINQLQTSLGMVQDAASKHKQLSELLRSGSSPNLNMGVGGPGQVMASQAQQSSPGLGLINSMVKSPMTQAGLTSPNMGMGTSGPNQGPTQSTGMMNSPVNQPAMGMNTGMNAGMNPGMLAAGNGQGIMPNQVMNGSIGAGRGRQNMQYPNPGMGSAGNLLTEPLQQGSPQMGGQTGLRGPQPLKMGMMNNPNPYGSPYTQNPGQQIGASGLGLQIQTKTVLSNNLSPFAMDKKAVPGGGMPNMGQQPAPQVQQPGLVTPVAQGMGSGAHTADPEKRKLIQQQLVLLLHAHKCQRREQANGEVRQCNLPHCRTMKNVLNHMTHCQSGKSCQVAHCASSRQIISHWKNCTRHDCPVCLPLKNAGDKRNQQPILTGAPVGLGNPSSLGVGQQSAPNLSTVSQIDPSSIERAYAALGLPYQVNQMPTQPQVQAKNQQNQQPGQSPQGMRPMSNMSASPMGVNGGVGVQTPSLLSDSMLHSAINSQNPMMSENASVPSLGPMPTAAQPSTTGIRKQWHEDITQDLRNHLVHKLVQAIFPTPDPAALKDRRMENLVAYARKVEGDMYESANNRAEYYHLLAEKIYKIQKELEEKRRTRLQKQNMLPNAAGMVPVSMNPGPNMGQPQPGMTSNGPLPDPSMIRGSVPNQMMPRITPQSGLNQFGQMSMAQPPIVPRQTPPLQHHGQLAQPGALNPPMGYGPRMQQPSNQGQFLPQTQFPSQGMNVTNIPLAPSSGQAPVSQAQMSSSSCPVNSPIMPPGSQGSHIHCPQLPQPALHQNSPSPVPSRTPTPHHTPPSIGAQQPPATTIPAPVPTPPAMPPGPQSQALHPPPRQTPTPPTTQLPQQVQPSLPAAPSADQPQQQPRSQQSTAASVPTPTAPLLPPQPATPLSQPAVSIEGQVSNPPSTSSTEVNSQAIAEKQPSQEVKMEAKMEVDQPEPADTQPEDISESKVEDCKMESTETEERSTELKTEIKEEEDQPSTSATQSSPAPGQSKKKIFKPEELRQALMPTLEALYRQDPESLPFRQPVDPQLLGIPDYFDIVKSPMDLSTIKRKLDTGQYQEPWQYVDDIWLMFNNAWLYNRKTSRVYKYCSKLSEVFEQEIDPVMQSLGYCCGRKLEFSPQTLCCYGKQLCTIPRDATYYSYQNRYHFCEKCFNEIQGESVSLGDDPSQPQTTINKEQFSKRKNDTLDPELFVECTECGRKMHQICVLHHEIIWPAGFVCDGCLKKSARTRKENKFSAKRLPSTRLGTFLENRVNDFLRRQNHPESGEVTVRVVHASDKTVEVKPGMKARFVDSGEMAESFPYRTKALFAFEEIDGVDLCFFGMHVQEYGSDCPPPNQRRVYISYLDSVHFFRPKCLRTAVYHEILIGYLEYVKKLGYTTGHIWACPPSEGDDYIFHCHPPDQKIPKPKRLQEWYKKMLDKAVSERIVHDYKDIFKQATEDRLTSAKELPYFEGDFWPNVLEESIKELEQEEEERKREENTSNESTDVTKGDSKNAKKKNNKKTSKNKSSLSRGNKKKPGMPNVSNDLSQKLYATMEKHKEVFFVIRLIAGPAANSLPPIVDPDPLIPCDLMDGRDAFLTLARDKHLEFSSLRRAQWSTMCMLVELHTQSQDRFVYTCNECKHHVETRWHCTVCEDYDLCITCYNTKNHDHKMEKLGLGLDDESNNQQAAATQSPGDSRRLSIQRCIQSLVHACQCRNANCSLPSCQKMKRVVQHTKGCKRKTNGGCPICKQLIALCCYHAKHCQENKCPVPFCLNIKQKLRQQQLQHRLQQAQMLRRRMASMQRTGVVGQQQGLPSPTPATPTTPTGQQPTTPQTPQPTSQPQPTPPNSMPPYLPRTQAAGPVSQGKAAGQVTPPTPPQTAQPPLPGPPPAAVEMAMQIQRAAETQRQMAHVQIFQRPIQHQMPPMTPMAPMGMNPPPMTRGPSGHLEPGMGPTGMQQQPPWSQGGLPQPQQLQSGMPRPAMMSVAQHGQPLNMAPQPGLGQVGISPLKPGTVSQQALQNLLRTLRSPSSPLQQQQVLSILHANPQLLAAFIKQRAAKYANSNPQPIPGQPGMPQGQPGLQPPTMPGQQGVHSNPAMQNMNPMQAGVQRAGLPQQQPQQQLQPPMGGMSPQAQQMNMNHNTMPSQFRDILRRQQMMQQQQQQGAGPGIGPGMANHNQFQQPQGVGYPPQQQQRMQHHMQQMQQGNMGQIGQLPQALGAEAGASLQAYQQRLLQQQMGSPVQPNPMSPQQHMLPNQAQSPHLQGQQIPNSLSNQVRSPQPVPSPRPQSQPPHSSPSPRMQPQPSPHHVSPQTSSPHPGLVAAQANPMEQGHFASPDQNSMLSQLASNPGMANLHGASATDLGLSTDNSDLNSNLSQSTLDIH
SMILES,DC50 (P300),P300 Degradation DCmax (P300),CBP Degradation DCmax (CBP),DC50 (CBP),DC50 (STAT3),Dmax (STAT3),IC50 (MOLM-16),IC50 (SU-DHL-1)
"CC(=O)N1CCc2c(c(N3CCCc4cc(-c5cnn(C)c5)c(C(F)F)cc43)nn2[C@H]2CC[C@H](C(=O)N3CCC4(CC3)COc3c4ccc4c3CN([C@H]3CCC(=O)NC3=O)C4=O)CC2)C1 [CPD-005, (S)-3-(1′-((1r,4S)-4-(5-acetyl-3-(7-(difluoromethyl)-6-(1-methyl-1H-pyrazol-4-yl)-3,4-dihydroquinolin-1(2H)-yl)-4,5,6,7-tetrahydro-1H-pyrazolo[4,3-c]pyridin-1-yl)cyclohexane-1-carbonyl)-6-oxo-6,8-dihydro-2H,7H-spiro[furo[2,3-e]isoindole-3,4′-piperidin]-7-yl)piperidine-2,6-dione]",< 0.1 nM,A (A (≥90%)),A (A (≥90%)),< 0.1 nM,,,,
"CC(=O)N1CCc2c(c(N3CCCc4cc(-c5cnn(C)c5)c(C(F)F)cc43)nn2[C@H]2CC[C@@H](C(=O)N3CCC4(CC3)COc3c4ccc4c3CN([C@H]3CCC(=O)NC3=O)C4=O)CC2)C1 [CPD-006, (S)-3-(1′-((1s,4R)-4-(5-acetyl-3-(7-(difluoromethyl)-6-(1-methyl-1H-pyrazol-4-yl)-3,4-dihydroquinolin-1(2H)-yl)-4,5,6,7-tetrahydro-1H-pyrazolo[4,3-c]pyridin-1-yl)cyclohexane-1-carbonyl)-6-oxo-6,8-dihydro-2H,7H-spiro[furo[2,3-e]isoindole-3,4′-piperidin]-7-yl)piperidine-2,6-dione]",0.1 to 1 nM,A (A (≥90%)),A (A (≥90%)),< 0.1 nM,,,,
"CS(=O)(=O)c1cccc(OC[C@H](CCC(N)=O)NC(=O)[C@@H]2CC[C@@H]3CCN(C(=O)CCN4CCC5(CC4)COc4c5ccc5c4CN([C@H]4CCC(=O)NC4=O)C5=O)C[C@H](NC(=O)c4cc5cc(C(F)(F)P(=O)(O)O)ccc5s4)C(=O)N32)c1 [STD 69, ((2-(((5S,8S,10aR)-8-(((S)-5-amino-1-(3-(methylsulfonyl)phenoxy)-5-oxopentan-2-yl)carbamoyl)-3-(3-(7-((S)-2,6-dioxopiperidin-3-yl)-6-oxo-7,8-dihydro-2H,6H-spiro[furo[2,3-e]isoindole-3,4′-piperidin]-1′-yl)propanoyl)-6-oxodecahydropyrrolo[1,2-a][1,5]diazocin-5-yl)carbamoyl)benzo[b]thiophen-5-yl)difluoromethyl)phosphonic acid]",,,,,1000 to 10000 nM,60 to 80%,1000 to 10000 nM,1000 to 10000 nM
"NC(=O)CC[C@H](NC(=O)[C@@H]1CC[C@@H]2CCN(C(=O)CCCCN3CCC4(CC3)COc3c4ccc4c3CN([C@H]3CCC(=O)NC3=O)C4=O)C[C@H](NC(=O)c3cc4cc(C(F)(F)P(=O)(O)O)ccc4s3)C(=O)N21)C(=O)NCc1cccc(Cl)c1 [STD 70, ((2-(((5S,8S,10aR)-8-(((S)-5-amino-1-((3-chlorobenzyl)amino)-1,5-dioxopentan-2-yl)carbamoyl)-3-(5-(7-((S)-2,6-dioxopiperidin-3-yl)-6-oxo-7,8-dihydro-2H,6H-spiro[furo[2,3-e]isoindole-3,4′-piperidin]-1′-yl)pentanoyl)-6-oxodecahydropyrrolo[1,2-a][1,5]diazocin-5-yl)carbamoyl)benzo[b]thiophen-5-yl)difluoromethyl)phosphonic acid]",,,,,100 to 1000 nM,≥ 80%,1000 to 10000 nM,1000 to 10000 nM
"CS(=O)(=O)c1cccc(OC[C@H](CCC(N)=O)NC(=O)[C@@H]2CC[C@@H]3CCN(C(=O)CCCCN4CCC5(CC4)COc4c5ccc5c4CN([C@H]4CCC(=O)NC4=O)C5=O)C[C@H](NC(=O)c4cc5cc(C(F)(F)P(=O)(O)O)ccc5s4)C(=O)N32)c1 [STD 71, ((2-(((5S,8S,10aR)-8-(((S)-5-amino-1-(3-(methylsulfonyl)phenoxy)-5-oxopentan-2-yl)carbamoyl)-3-(5-(7-((S)-2,6-dioxopiperidin-3-yl)-6-oxo-7,8-dihydro-2H,6H-spiro[furo[2,3-e]isoindole-3,4′-piperidin]-1′-yl)pentanoyl)-6-oxodecahydropyrrolo[1,2-a][1,5]diazocin-5-yl)carbamoyl)benzo[b]thiophen-5-yl)difluoromethyl)phosphonic acid]",,,,,100 to 1000 nM,≥ 80%,100 to 1000 nM,1000 to 10000 nM
"CC(C)S(=O)(=O)c1ccc(CNC(=O)[C@H](CCC(N)=O)NC(=O)[C@@H]2CC[C@@H]3CCN(C(=O)CCCCN4CCC5(CC4)COc4c5ccc5c4CN([C@H]4CCC(=O)NC4=O)C5=O)C[C@H](NC(=O)c4cc5cc(C(F)(F)P(=O)(O)O)ccc5s4)C(=O)N32)cc1 [STD 80, ((2-(((5S,8S,10aR)-8-(((S)-5-amino-1-((4-(isopropylsulfonyl)benzyl)amino)-1,5-dioxopentan-2-yl)carbamoyl)-3-(5-(7-((S)-2,6-dioxopiperidin-3-yl)-6-oxo-7,8-dihydro-2H,6H-spiro[furo[2,3-e]isoindole-3,4′-piperidin]-1′-yl)pentanoyl)-6-oxodecahydropyrrolo[1,2-a][1,5]diazocin-5-yl)carbamoyl)benzo[b]thiophen-5-yl)difluoromethyl)phosphonic acid]",,,,,100 to 1000 nM,≥ 80%,100 to 1000 nM,1000 to 10000 nM
"CS(=O)(=O)c1cccc(OC[C@H](CCC(N)=O)NC(=O)[C@@H]2CC[C@@H]3CCN(C(=O)CCCCN4CCC5(CC4)COc4c5ccc5c4CN([C@H]4CCC(=O)NC4=O)C5=O)C[C@H](NC(=O)c4cc5cc(C(=O)P(=O)(O)O)ccc5[nH]4)C(=O)N32)c1 [STD 84, (2-(((5S,8S,10aR)-8-(((S)-5-amino-1-(3-(methylsulfonyl)phenoxy)-5-oxopentan-2-yl)carbamoyl)-3-(5-(7-((S)-2,6-dioxopiperidin-3-yl)-6-oxo-7,8-dihydro-2H,6H-spiro[furo[2,3-e]isoindole-3,4′-piperidin]-1′-yl)pentanoyl)-6-oxodecahydropyrrolo[1,2-a] [1,5]diazocin-5-yl)carbamoyl)-1H-indole-5-carbonyl)phosphonic acid]",,,,,100 to 1000 nM,≥ 80%,100 to 1000 nM,1000 to 10000 nM
"CCS(=O)(=O)c1ccc(CNC(=O)[C@H](CCC(N)=O)NC(=O)[C@@H]2CC[C@@H]3CCN(C(=O)CCCCN4CCC5(CC4)COc4c5ccc5c4CN([C@H]4CCC(=O)NC4=O)C5=O)C[C@H](NC(=O)c4cc5cc(C(=O)P(=O)(O)O)ccc5[nH]4)C(=O)N32)cc1 [STD 85, (2-(((5S,8S,10aR)-8-(((S)-5-amino-1-((4-(ethylsulfonyl)benzyl)amino)-1,5-dioxopentan-2-yl)carbamoyl)-3-(5-(7-((S)-2,6-dioxopiperidin-3-yl)-6-oxo-7,8-dihydro-2H,6H-spiro[furo[2,3-e]isoindole-3,4′-piperidin]-1′-yl)pentanoyl)-6-oxodecahydropyrrolo[1,2-a] [1,5]diazocin-5-yl)carbamoyl)-1H-indole-5-carbonyl)phosphonic acid]",,,,,100 to 1000 nM,≥ 80%,100 to 1000 nM,1000 to 10000 nM
"CC(C)S(=O)(=O)c1ccc(CNC(=O)[C@H](CCC(N)=O)NC(=O)[C@@H]2CC[C@@H]3CCN(C(=O)CCCCN4CCC5(CC4)COc4c5ccc5c4CN([C@H]4CCC(=O)NC4=O)C5=O)C[C@H](NC(=O)c4cc5cc(C(=O)P(=O)(O)O)ccc5[nH]4)C(=O)N32)cc1 [STD 86, (2-(((5S,8S,10aR)-8-(((S)-5-amino-1-((4-(isopropylsulfonyl)benzyl)amino)-1,5-dioxopentan-2-yl)carbamoyl)-3-(5-(7-((S)-2,6-dioxopiperidin-3-yl)-6-oxo-7,8-dihydro-2H,6H-spiro[furo[2,3-e]isoindole-3,4′-piperidin]-1′-yl)pentanoyl)-6-oxodecahydropyrrolo[1,2-a] [1,5]diazocin-5-yl)carbamoyl)-1H-indole-5-carbonyl)phosphonic acid]",,,,,100 to 1000 nM,≥ 80%,100 to 1000 nM,1000 to 10000 nM

# — patent US20250195484A1, “CEREBLON LIGANDS AND USES THEREOF” (priority 2022, published 2025)
